Data taken from PMC10178848, “Modulating fast skeletal muscle contraction protects skeletal muscle in animal models of Duchenne muscular dystrophy” (The Journal of Clinical Investigation, 2023).

System: mdx mouse EDL muscle
Experiment: Phosphoprotein array analysis (Cell Signaling Phospho Antibody Array)
Procedure: mdx mouse EDL muscle was prepared for ex vivo analysis as described (n = 5). Muscles were incubated for 1 hour with DMSO or EDG-5506 (5 μM) and then flash frozen in liquid nitrogen. Tissue preparation and analysis were performed as recommended by the manufacturer (Cell Signaling Phospho Antibody Array, Full Moon Biosystems).

O=c1ccc(-c2cnc(OCC(F)(F)F)nc2)nn1Cc1cncc(F)c1 [EDG-5506]
Fold Change T/C: PPAR-gamma (Ab-112) (5 μM, 1 hour): 1.49
Fold Change T/C: PPAR-gamma (Phospho-Ser112) (5 μM, 1 hour): 1.26
Fold Change T/C: PTEN (Ab-380) (5 μM, 1 hour): 1.13
Fold Change T/C: Raf1 (Ab-43) (5 μM, 1 hour): 0.90
Fold Change T/C: Rb (Ab-807) (5 μM, 1 hour): 2.11
Fold Change T/C: Rb (Phospho-Ser807) (5 μM, 1 hour): 0.91
Fold Change T/C: RelB (Phospho-Ser552) (5 μM, 1 hour): 0.76
Fold Change T/C: SAPK/JNK (Phospho-Tyr185) (5 μM, 1 hour): 0.84
Fold Change T/C: SHP-2 (Phospho-Tyr542) (5 μM, 1 hour): 0.91
Fold Change T/C: SRF (Ab-99) (5 μM, 1 hour): 1.97
Fold Change T/C: STAT3 (Ab-705) (5 μM, 1 hour): 1.05
Fold Change T/C: STAT3 (Phospho-Tyr705) (5 μM, 1 hour): 0.92
Fold Change T/C: STAT4 (Phospho-Tyr693) (5 μM, 1 hour): 1.04
Fold Change T/C: STAT5A (Ab-780) (5 μM, 1 hour): 0.86
Fold Change T/C: STAT6 (Ab-645) (5 μM, 1 hour): 1.12
Fold Change T/C: STAT6 (Phospho-Thr645) (5 μM, 1 hour): 0.89
Fold Change T/C: SYK (Ab-525) (5 μM, 1 hour): 0.99
Fold Change T/C: SYK (Phospho-Tyr348) (5 μM, 1 hour): 0.91
Fold Change T/C: Shc (Ab-349) (5 μM, 1 hour): 0.62
Fold Change T/C: Smad1 (Ab-465) (5 μM, 1 hour): 0.82
Fold Change T/C: Smad1 (Phospho-Ser187) (5 μM, 1 hour): 1.60
Fold Change T/C: Smad2 (Ab-255) (5 μM, 1 hour): 2.57
Fold Change T/C: Smad2 (Phospho-Ser467) (5 μM, 1 hour): 1.00
Fold Change T/C: Smad2/3 (Phospho-Thr8) (5 μM, 1 hour): 1.25
Fold Change T/C: Smad3 (Ab-425) (5 μM, 1 hour): 0.52
Fold Change T/C: Smad3 (Phospho-Ser213) (5 μM, 1 hour): 1.26
Fold Change T/C: Src (Ab-418) (5 μM, 1 hour): 1.70
Fold Change T/C: Src (Phospho-Tyr418) (5 μM, 1 hour): 0.77
Fold Change T/C: TGFBR2 (Ab-250) (5 μM, 1 hour): 0.90
Fold Change T/C: Tau (Ab-235) (5 μM, 1 hour): 1.98
Fold Change T/C: Tau (Phospho-Ser396) (5 μM, 1 hour): 0.90
Fold Change T/C: Trk B (Ab-515) (5 μM, 1 hour): 1.53
Fold Change T/C: Tubulin-b (5 μM, 1 hour): 1.09
Fold Change T/C: VASP (Ab-157) (5 μM, 1 hour): 1.26
Fold Change T/C: VEGFR2 (Ab-1214) (5 μM, 1 hour): 1.07
Fold Change T/C: VEGFR2 (Phospho-Tyr1175) (5 μM, 1 hour): 0.84
Fold Change T/C: Zap-70 (Ab-319) (5 μM, 1 hour): 1.12
Fold Change T/C: Zap-70 (Phospho-Tyr319) (5 μM, 1 hour): 1.04
Fold Change T/C: c-Abl (Ab-412) (5 μM, 1 hour): 0.93
Fold Change T/C: c-Jun (Ab-243) (5 μM, 1 hour): 1.03
Fold Change T/C: c-Jun (Phospho-Ser73) (5 μM, 1 hour): 0.91
Fold Change T/C: eEF2K (Ab-366) (5 μM, 1 hour): 2.10
Fold Change T/C: eIF2A (Ab-51) (5 μM, 1 hour): 0.86
Fold Change T/C: eNOS (Ab-1179) (5 μM, 1 hour): 0.92
Fold Change T/C: p44/42 MAP Kinase (Phospho-Tyr204) (5 μM, 1 hour): 0.88
Fold Change T/C: p53 (Ab-315) (5 μM, 1 hour): 1.69
Fold Change T/C: p53 (Phospho-Ser15) (5 μM, 1 hour): 0.20
changes in implicated signaling pathways (Akt, IGF1, LTBP4/TGF-β) (5 μM, 1 hour): no consistent changes in implicated pathways
Average Signal of Replicate Spots: 4E-BP1 (Phospho-Thr45) (4000031744 (T)): 3952
Average Signal of Replicate Spots: 14-3-3 theta/tau (Phospho-Ser232) (4000031744 (T)): 1343
Average Signal of Replicate Spots: ACC1 (Phospho-Ser80) (4000031744 (T)): 1068
Average Signal of Replicate Spots: AMPKbeta1 (Phospho-Ser182) (4000031744 (T)): 1111
Average Signal of Replicate Spots: B-RAF (Phospho-Ser446) (4000031744 (T)): 1461
Average Signal of Replicate Spots: BAX (Phospho-Thr167) (4000031744 (T)): 923
Average Signal of Replicate Spots: BCL-XL (Phospho-Ser62) (4000031744 (T)): 3298
Average Signal of Replicate Spots: BLNK (Phospho-Tyr96) (4000031744 (T)): 811
Average Signal of Replicate Spots: CBL (Phospho-Tyr700) (4000031744 (T)): 1571
Average Signal of Replicate Spots: CDK1/CDC2 (Phospho-Tyr15) (4000031744 (T)): 1071
Average Signal of Replicate Spots: CREB (Phospho-Ser133) (4000031744 (T)): 971
Average Signal of Replicate Spots: CaMK2-beta/gamma/delta (Phospho-Thr287) (4000031744 (T)): 1442
Average Signal of Replicate Spots: CaMK2A (Phospho-Thr286) (4000031744 (T)): 1017
Average Signal of Replicate Spots: Caspase 8 (Phospho-Ser347) (4000031744 (T)): 1275
Average Signal of Replicate Spots: Caspase 9 (Phospho-Ser196) (4000031744 (T)): 3581
Average Signal of Replicate Spots: Catenin beta (Phospho-Thr41/Ser45) (4000031744 (T)): 1080
Average Signal of Replicate Spots: Chk2 (Phospho-Thr68) (4000031744 (T)): 787
Average Signal of Replicate Spots: Cyclin D1 (Phospho-Thr286) (4000031744 (T)): 2969
Average Signal of Replicate Spots: Cyclin E1 (Phospho-Thr77) (4000031744 (T)): 1889
Average Signal of Replicate Spots: DARPP-32 (Phospho-Thr34) (4000031744 (T)): 1112
Average Signal of Replicate Spots: EEF2 (Phospho-Thr56) (4000031744 (T)): 1593
Average Signal of Replicate Spots: FADD (Phospho-Ser194) (4000031744 (T)): 2520
Average Signal of Replicate Spots: FAK (Phospho-Ser910) (4000031744 (T)): 1946
Average Signal of Replicate Spots: FGFR1 (Phospho-Tyr654) (4000031744 (T)): 2920
Average Signal of Replicate Spots: GRK2 (Phospho-Ser29) (4000031744 (T)): 1817
Average Signal of Replicate Spots: GSK3 alpha/beta (Phospho-Tyr216/279) (4000031744 (T)): 1223
Average Signal of Replicate Spots: Gab2 (Phospho-Tyr643) (4000031744 (T)): 5234
Average Signal of Replicate Spots: HDAC1 (Phospho-Ser421) (4000031744 (T)): 1842
Average Signal of Replicate Spots: HDAC2 (Phospho-Ser394) (4000031744 (T)): 1737
Average Signal of Replicate Spots: HSP90B (Phospho-Ser226) (4000031744 (T)): 2514
Average Signal of Replicate Spots: IKK-beta (Phospho-Tyr188) (4000031744 (T)): 1332
Average Signal of Replicate Spots: IKK-beta (Phospho-Tyr199) (4000031744 (T)): 1363
Average Signal of Replicate Spots: IKK-gamma (Phospho-Ser31) (4000031744 (T)): 1172
Average Signal of Replicate Spots: IL-4R/CD124 (Phospho-Tyr497) (4000031744 (T)): 1616
Average Signal of Replicate Spots: IL-10R-alpha (Phospho-Tyr496) (4000031744 (T)): 1513
Average Signal of Replicate Spots: IkB-alpha (Phospho-Ser32/36) (4000031744 (T)): 10513
Average Signal of Replicate Spots: Integrin beta-3 (Phospho-Tyr773) (4000031744 (T)): 1072
Average Signal of Replicate Spots: JunB (Phospho-Ser259) (4000031744 (T)): 1085
Average Signal of Replicate Spots: LYN (Phospho-Tyr507) (4000031744 (T)): 1395
Average Signal of Replicate Spots: Lamin A/C (Phospho-Ser392) (4000031744 (T)): 969
Average Signal of Replicate Spots: MEK1 (Phospho-Ser217) (4000031744 (T)): 790
Average Signal of Replicate Spots: NFkB-p65 (Phospho-Ser311) (4000031744 (T)): 1154
Average Signal of Replicate Spots: NFkB-p100/p52 (Phospho-Ser865) (4000031744 (T)): 1360
Average Signal of Replicate Spots: P38 MAPK (Phospho-Thr180/Tyr182) (4000031744 (T)): 2391
Average Signal of Replicate Spots: P70S6K (Phospho-Ser424) (4000031744 (T)): 1169
Average Signal of Replicate Spots: P90RSK (Phospho-Thr359/Ser363) (4000031744 (T)): 1665
Average Signal of Replicate Spots: PDK1 (Phospho-Ser241) (4000031744 (T)): 2037
Average Signal of Replicate Spots: PLCG1 (Phospho-Tyr783) (4000031744 (T)): 8981
Average Signal of Replicate Spots: PLK1 (Phospho-Thr210) (4000031744 (T)): 732
Average Signal of Replicate Spots: PP2A-alpha (Phospho-Tyr307) (4000031744 (T)): 1166
Average Signal of Replicate Spots: PPAR-gamma (Phospho-Ser112) (4000031744 (T)): 1480
Average Signal of Replicate Spots: Rb (Phospho-Ser807) (4000031744 (T)): 1194
Average Signal of Replicate Spots: RelB (Phospho-Ser552) (4000031744 (T)): 3212
Average Signal of Replicate Spots: SAPK/JNK (Phospho-Tyr185) (4000031744 (T)): 1041
Average Signal of Replicate Spots: SHP-2 (Phospho-Tyr542) (4000031744 (T)): 1268
Average Signal of Replicate Spots: STAT3 (Phospho-Tyr705) (4000031744 (T)): 1079
Average Signal of Replicate Spots: STAT4 (Phospho-Tyr693) (4000031744 (T)): 52519
Average Signal of Replicate Spots: STAT6 (Phospho-Thr645) (4000031744 (T)): 1124
Average Signal of Replicate Spots: SYK (Phospho-Tyr348) (4000031744 (T)): 1249
Average Signal of Replicate Spots: Smad1 (Phospho-Ser187) (4000031744 (T)): 2057
Average Signal of Replicate Spots: Smad2 (Phospho-Ser467) (4000031744 (T)): 1265
Average Signal of Replicate Spots: Smad2/3 (Phospho-Thr8) (4000031744 (T)): 2539
Average Signal of Replicate Spots: Smad3 (Phospho-Ser213) (4000031744 (T)): 1879
Average Signal of Replicate Spots: Src (Phospho-Tyr418) (4000031744 (T)): 10867
Average Signal of Replicate Spots: Tau (Phospho-Ser396) (4000031744 (T)): 1057
Average Signal of Replicate Spots: VEGFR2 (Phospho-Tyr1175) (4000031744 (T)): 1051
Average Signal of Replicate Spots: Zap-70 (Phospho-Tyr319) (4000031744 (T)): 1504
Average Signal of Replicate Spots: c-Jun (Phospho-Ser73) (4000031744 (T)): 1180
Average Signal of Replicate Spots: p44/42 MAP Kinase (Phospho-Tyr204) (4000031744 (T)): 1035
Average Signal of Replicate Spots: p53 (Phospho-Ser15) (4000031744 (T)): 1903
Data Normalized to Median Signal: 4E-BP1 (Phospho-Thr45) (4000031744 (T)): 3.29
Data Normalized to Median Signal: 14-3-3 theta/tau (Phospho-Ser232) (4000031744 (T)): 1.12
Data Normalized to Median Signal: ACC1 (Phospho-Ser80) (4000031744 (T)): 0.89
Data Normalized to Median Signal: AMPKbeta1 (Phospho-Ser182) (4000031744 (T)): 0.93
Data Normalized to Median Signal: B-RAF (Phospho-Ser446) (4000031744 (T)): 1.22
Data Normalized to Median Signal: BCL-XL (Phospho-Ser62) (4000031744 (T)): 2.75
Data Normalized to Median Signal: BLNK (Phospho-Tyr96) (4000031744 (T)): 0.68
Data Normalized to Median Signal: CBL (Phospho-Tyr700) (4000031744 (T)): 1.31
